Results on two compounds are retold here after publication PMC9516684 (2022).

For experiment [1], the system named is AT (DNA, duplex) ATATATATATAT
Briefly: UV-visible absorbance titration 415 nm, Bard fit. Conditions: Na+ (20 mM sodium phosphate), 20 mM sodium phosphate pH 7.0, 298 K, per base.

The subject of experiment [2] is AT (DNA, duplex) ATATATATATAT
Briefly: luminescence titration 750 nm, Bard fit. Conditions: Na+ (20 mM sodium phosphate), 20 mM sodium phosphate pH 7.0, 298 K, per base.

In experiment [3] the test system is (5′-CCGGATCCGG)2 (AT step) (DNA, duplex) CCGGATCCGG
Briefly: UV-visible absorbance titration 355 nm, Bard fit. Particulars: Na+ (20 mM sodium phosphate); 20 mM sodium phosphate pH 7.0, 298 K; site size s 3.5 (±0.7); per base.

For experiment [4] the test system is unchanged. Briefly: luminescence titration 750 nm, Bard fit. Particulars: Na+ (20 mM sodium phosphate); 20 mM sodium phosphate pH 7.0, 298 K; s 5.5; caption says luminescence 750 nm, column head 415 nm absorbance; per base.
For experiment [5], the system named is AT (DNA, duplex) ATATATATATAT
Kind of experiment: UV-visible absorbance titration 355 nm, Bard fit. Particulars: Na+ (20 mM sodium phosphate), 20 mM sodium phosphate pH 7.0, 298 K, per base.

For experiment [6], the system named is (5′-CCGGTACCGG)2 (TA step) (DNA, duplex) CCGGTACCGG
Kind of experiment: UV-visible absorbance titration 355 nm, Bard fit. Particulars: Na+ (20 mM sodium phosphate); 20 mM sodium phosphate pH 7.0, 298 K; site size s 3.17 (±0.07); per base.

Experiment [7] shares this test system. Kind of experiment: luminescence titration 750 nm, Bard fit. Conditions: Na+ (20 mM sodium phosphate); 20 mM sodium phosphate pH 7.0, 298 K; s 7.6; caption says luminescence 750 nm, column head 415 nm absorbance; per base.

Take `[Os+2].c1ccc2nc3c4cccnc4c4ncccc4c3nc2c1.c1cnc2c(ccc3nccnc32)n1.c1cnc2c(ccc3nccnc32)n1`: the Kb in experiment [1] (site size s 4.5 (±0.1)) is 8.7 (±1.2) × 10^6 M^–1; in experiment [1] (site size s 6.0 (±0.2)), 5.1 (±1.6) × 10^6 M^–1; in experiment [2] (site size s 3.8 (±0.1)) it was 8.5 (±0.5) × 10^6 M^–1; in experiment [2] (site size s 5.0 (±0.1)) it was 1.1 (±0.3) × 10^7 M^–1.
Take `[Os+2].c1cnc2c(ccc3nccnc32)n1.c1cnc2c(ccc3nccnc32)n1.c1cnc2nc3c4cccnc4c4ncccc4c3nc2c1`: the Kb is given as 3.8 (±1.5) × 10^6 M^–1 in experiment [3]; 4.5 (±1.3) × 10^6 M^–1 in experiment [2] (site size s 4.6 (±0.1)); 1.4 (±0.4) × 10^7 M^–1 in experiment [2] (site size s 7.7 (±0.08)); 1.0 (±0.2) × 10^6 M^–1 in experiment [4]; 2.0 (±0.3) × 10^6 M^–1 in experiment [5] (site size s 4.4 (±0.1)); 5.0 (±0.8) × 10^6 M^–1 in experiment [5] (site size s 5.6 (±0.1)). The Kb in experiment [6] is recorded as 2.2 (±0.4) × 10^6 M^–1; in experiment [7], 1.4 (±0.3) × 10^6 M^–1.
